In ChEMBL document CHEMBL1144508, “Inhibitory activity of stilbenes on Alzheimer's beta-amyloid fibrils in vitro” (Bioorg Med Chem, 2007):
pEC50: −log10 of the molar value. Activity calls are given as the source filed them. No cut-off for these calls is given here.

Key:
[1] = species: Homo sapiens; assay: (§1) Antiamyloidogenic activity assessed as inhibition of beta amyloid (25-35) fibril formation after 6 hrs
[2] = as §1; parameters: species or system Homo sapiens

Activity [1]	pEC50 [2]	SMILES
inactive	–	O=c1oc2c(O)c(O)cc3c(=O)oc4c(O)c(O)cc1c4c23
–	5.00	COc1cc(/C=C/C(=O)CC(=O)/C=C/c2ccc(O)c(OC)c2)ccc1O [CURCUMIN]
–	5.25	Oc1ccc(/C=C/c2cc(O)cc(O)c2)cc1 [RESVERATROL]
–	5.33	OC[C@H]1O[C@@H](Oc2cc(O)cc(/C=C/c3ccc(O)cc3)c2)[C@H](O)[C@@H](O)[C@@H]1O [PICEID]
